Source: PMC11551755, “Structure-based discovery of first inhibitors targeting the helicase activity of human PIF1” (Nucleic Acids Research, 2024)

Legend:
[1] = biological target: T1, FLhPIF1 (full length human PIF1) (Homo sapiens, UniProt Q9H611); assay: radiometric strand displacement helicase assay, no pre-incubation; assay type: biochemical; conditions: for fold increase in inhibition at 1 mM relative to compound 1: 1 mM single point helicase screen; for inhibition at 1000 µM: 1 mM single point, gel-based DNA unwinding assay, four repeats (S4 n=3); for IC50: 0.0078–2 mM compound, 10 nM FLhPIF1, 0.1 nM DNA substrate, n = 3, read-out: IC50 for inhibition of FLhPIF1 helicase activity
T1 construct: Full length human PIF1 (FLhPIF1) was expressed and purified as a His-SUMO fusion; His-SUMO (cleaved yes); made in house; 'following similar protocols' to hPIF1HD (ArcticExpress BL21(DE3) E. coli)
T1 sequence (Q9H611 1-641): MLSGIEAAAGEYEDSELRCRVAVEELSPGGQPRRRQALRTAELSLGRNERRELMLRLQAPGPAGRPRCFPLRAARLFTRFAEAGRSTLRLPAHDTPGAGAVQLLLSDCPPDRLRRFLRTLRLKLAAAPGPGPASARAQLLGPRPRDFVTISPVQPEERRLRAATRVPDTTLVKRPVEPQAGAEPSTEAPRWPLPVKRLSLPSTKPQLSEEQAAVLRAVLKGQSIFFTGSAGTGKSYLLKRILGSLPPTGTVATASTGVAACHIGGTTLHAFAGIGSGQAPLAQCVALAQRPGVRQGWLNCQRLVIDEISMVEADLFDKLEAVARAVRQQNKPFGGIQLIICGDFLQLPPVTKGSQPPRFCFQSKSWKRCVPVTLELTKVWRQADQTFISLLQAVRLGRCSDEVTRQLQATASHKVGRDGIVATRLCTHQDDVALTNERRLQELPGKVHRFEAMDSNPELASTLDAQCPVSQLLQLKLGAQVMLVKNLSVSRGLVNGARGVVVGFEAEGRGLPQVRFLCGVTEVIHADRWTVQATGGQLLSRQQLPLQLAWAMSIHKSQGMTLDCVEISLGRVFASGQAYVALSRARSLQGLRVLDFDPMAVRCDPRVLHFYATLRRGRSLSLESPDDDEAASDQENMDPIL
Procedure: Helicase activity was assayed using a radiometric strand displacement assay employing a partially single- and double-stranded substrate generated by annealing two oligonucleotides: 5′-(T)55-[…] and 5′-[…], as described previously ([19],[28]). […] SMIs (100 mM stocks in DMSO) were assayed at up to 2 mM without pre-incubation with FLhPIF1, unless otherwise stated. […] Dried gels were exposed to phosphorimaging plates (Fujifilm) for imaging and quantification (Fuji FLA3000, image gauge V3.3 software). IC50 values were analysed by non-linear regression (variable slope) using GraphPad Prism.

[2] = biological target: T2, human UPF1 (hUPF1) helicase (Homo sapiens, UniProt Q92900); assay: helicase assay after pre-incubation of SMI with hUPF1; assay type: biochemical; conditions: for IC50: 2 h pre-incubation at 22°C with 100 nM hUPF1, then 1:10 dilution into helicase assay, read-out: IC50 for dsDNA unwinding by hUPF1 following pre-incubation
T2 construct: Full-length human UPF1 helicase was expressed and purified as described previously; made in house
T2 sequence (Q92900 1-1129): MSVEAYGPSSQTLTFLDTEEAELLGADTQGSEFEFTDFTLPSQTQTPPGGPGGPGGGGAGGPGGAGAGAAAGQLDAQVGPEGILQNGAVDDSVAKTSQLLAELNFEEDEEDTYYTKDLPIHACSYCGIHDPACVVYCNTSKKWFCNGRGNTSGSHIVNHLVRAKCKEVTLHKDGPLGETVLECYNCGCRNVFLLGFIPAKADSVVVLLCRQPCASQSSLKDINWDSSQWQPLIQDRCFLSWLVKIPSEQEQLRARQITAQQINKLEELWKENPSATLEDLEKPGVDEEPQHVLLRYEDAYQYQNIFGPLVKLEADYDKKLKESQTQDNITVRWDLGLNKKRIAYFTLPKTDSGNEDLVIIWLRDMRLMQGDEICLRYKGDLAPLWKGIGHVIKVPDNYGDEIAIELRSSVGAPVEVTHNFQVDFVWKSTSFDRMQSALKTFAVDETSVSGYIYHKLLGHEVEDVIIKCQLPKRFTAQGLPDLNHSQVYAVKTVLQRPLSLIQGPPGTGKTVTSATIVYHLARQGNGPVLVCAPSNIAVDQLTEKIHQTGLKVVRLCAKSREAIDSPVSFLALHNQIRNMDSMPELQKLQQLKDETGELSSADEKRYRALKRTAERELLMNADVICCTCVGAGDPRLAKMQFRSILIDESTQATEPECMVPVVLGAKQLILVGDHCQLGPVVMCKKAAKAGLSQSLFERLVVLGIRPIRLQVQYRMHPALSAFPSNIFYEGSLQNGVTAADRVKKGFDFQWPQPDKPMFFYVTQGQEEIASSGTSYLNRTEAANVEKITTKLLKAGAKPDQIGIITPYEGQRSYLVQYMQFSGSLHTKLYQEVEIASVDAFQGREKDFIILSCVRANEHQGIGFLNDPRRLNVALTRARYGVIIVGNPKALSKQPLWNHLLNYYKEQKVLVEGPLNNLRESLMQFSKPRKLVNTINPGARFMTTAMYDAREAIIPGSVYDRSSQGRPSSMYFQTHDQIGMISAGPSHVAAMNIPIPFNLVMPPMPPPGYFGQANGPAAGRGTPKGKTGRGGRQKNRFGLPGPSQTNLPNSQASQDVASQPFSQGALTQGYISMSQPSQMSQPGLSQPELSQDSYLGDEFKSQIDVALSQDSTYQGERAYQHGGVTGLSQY
Procedure: Full-length human UPF1 helicase was expressed and purified as described previously ([36]).
In parallel, IC50 values for inhibition of human UPF1 (hUPF1) helicase activity by the SMIs were also determined under the same conditions. UPF1-like SF1B helicases are the most closely related family of helicases to PIF1, with significant structural and mechanistic similarity ([52]).
Figure 6. SMI IC50 for dsDNA unwinding determined following pre-incubation. SMIs (0.0078–2 mM SMI) were incubated for 2 h at 22°C (100 nM FLhPIF1 or hUPF1) before dilution (1:10) in the standard helicase assay (0.1 nM DNA substrate). For 1D and 6, structures, electrophoresis of FLhPIF1 reaction product and graphs for IC50 value determination are shown. The graphed data include the activity of SMIs towards hUPF1 and IC50 values obtained are given. See Supplementary Figure S14 for the complete data set. TEXT PRINTED IN THE PICTURE: 1D: IC50 (μM): PIF1: 978 ± 221; IC50 (μM): UPF1: N.D. | 6: IC50 (μM): PIF1: 79.4 ± 16; IC50 (μM): UPF1: 1750 ± 426
Supplementary Figure 14. IC50 DNA unwinding determined following 2 hours pre-incubation. […] The assay procedure and reaction conditions for each helicase were identical (see methods, main manuscript). The figure complements main manuscript Figure 6. […] The reason for this is unclear.

CC(=O)Nc1ccc(-c2csc(N)n2)cc1-c1ccc(C)cc1 [Compound 10]
inhibition of FLhPIF1 helicase activity in 1 mM single-point screen ([1]; 1 mM): strongly inhibited the protein | fold increase in inhibition at 1 mM relative to compound 1 [1]: up to 6.5 fold | inhibition at 1000 µM [1]: 80.9 ± 5.5% | IC50 ([1]; no pre-incubation): 174 ± 7 µM

CC(=O)c1ccc(-c2csc(N)n2)cc1 [Compound 2]
IC50 [2]: 445 ± 132 µM | inhibition at 1000 µM [1]: 79.1 ± 5.2% | IC50 ([1]; no pre-incubation): 165 ± 75 µM

CC(=O)Nc1ccc(-c2csc(N)n2)cc1C1=CCNCC1 [Compound 11]
IC50 [2]: 576 ± 146 µM | fold increase in inhibition at 1 mM relative to compound 1 [1]: up to 6.5 fold | inhibition at 1000 µM [1]: 84.8 ± 3.4% | IC50 ([1]; no pre-incubation): 188 ± 8 µM

N#Cc1ccc(-c2csc(N)n2)cc1 [Compound 5]
IC50 [2]: 289 ± 127 µM | inhibition at 1000 µM [1]: 84 ± 4.1% | IC50 ([1]; no pre-incubation): 105 ± 6 µM

Nc1nc(-c2ccc(C(=O)c3ccccc3)cc2)cs1 [Compound 6]
fold difference in sensitivity, hUPF1 vs FLhPIF1 IC50 ([2]; 2 h pre-incubation): ~22 fold | IC50 [2]: 1750 ± 426 µM | inhibition at 1000 µM [1]: 82.3 ± 6.6% | IC50 ([1]; no pre-incubation): 36 ± 7 µM | fold improvement of helicase IC50 compared to progenitor 1F ([1]; no pre-incubation): 30 fold
